# BindingDB's records for doi:10.1021/jm101621u (University of Utah, 2011)
# Square brackets hold non-standard residues; d marks the D form. Peptide text beside a SMILES is read from it. d(aThr) = C[C@@H](O)[C@@H](N)C(=O)O; Dhb = C/C=C(\N)C(=O)O
# Biological target: Transient receptor potential cation channel subfamily V member 1 (Homo sapiens, UniProt Q8NER1)
# Assay: Antagonist activity at human TRPV1 expressed in HEK293 cell assessed as inhibition of capsaicin-induced calcium flux by fluorometric analysis
# Sequence of Transient receptor potential cation channel subfamily V member 1 (Q8NER1 whole entry): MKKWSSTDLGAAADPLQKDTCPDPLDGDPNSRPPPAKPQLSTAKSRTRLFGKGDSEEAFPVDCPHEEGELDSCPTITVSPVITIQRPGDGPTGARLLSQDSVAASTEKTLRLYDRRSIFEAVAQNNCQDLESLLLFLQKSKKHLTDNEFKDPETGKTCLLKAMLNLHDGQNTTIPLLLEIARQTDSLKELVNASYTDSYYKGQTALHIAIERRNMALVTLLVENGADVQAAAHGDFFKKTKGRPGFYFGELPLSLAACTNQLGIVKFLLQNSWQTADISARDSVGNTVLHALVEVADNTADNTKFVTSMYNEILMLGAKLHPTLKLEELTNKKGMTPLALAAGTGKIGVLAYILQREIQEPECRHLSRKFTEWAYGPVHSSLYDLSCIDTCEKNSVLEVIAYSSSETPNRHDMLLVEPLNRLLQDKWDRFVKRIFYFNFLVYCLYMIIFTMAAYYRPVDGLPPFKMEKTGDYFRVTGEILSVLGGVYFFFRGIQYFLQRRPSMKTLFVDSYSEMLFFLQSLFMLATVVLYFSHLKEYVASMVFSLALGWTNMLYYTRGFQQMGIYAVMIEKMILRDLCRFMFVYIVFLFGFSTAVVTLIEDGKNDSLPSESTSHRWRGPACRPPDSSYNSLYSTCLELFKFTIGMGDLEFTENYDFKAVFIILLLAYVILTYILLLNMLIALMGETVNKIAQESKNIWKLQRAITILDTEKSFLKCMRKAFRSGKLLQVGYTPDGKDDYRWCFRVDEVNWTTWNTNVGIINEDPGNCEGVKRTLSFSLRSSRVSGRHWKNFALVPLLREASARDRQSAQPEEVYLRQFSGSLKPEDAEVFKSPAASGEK
smiles,measurement,value
C/C=C(\NC(=O)[C@H](C)NC(=O)[C@@H](NC(=O)[C@H](NC(=O)[C@H](Cc1ccccc1)NC(=O)[C@@H](CC(C)C)NC(=O)[C@@H](Cc1ccccc1)NC(C)=O)[C@@H](C)O)C(C)C)C(=O)O [Nobilamide A] (Ac-[dF][dL]F[d(aThr)]VA[Dhb]-OH),IC50,1660 µM
